# Assay results: paper PMC3480348, “Structure and Activity Analysis of Inauhzin Analogs as Novel Antitumor Compounds That Induce p53 and Inhibit Cell Growth” (PLoS ONE, 2012)
# “Also recorded” adds a separate entry of the source. Where two headings read alike, the source gives them in different places.
# How the values were obtained:
# p53 level in H460 cells = assay: p53 induction by immunoblotting (IB) in H460 cells; assay type: cell-based, human; details: 2 µM, 18 hrs; IB normalized to GAPDH, compared to 2 µM INZ
# [1] = test system: p53 level in HCT116^+/+ cells; assay: p53 induction by immunoblotting (IB) in HCT116^+/+ cells; assay type: cell-based, human; details: 2 µM, 18 hrs; IB normalized to GAPDH, compared to 2 µM INZ
# Protocol: (§1) EC90 values were calculated from the EC50 and Hill slope by a web-based calculator: http://www.graphpad.com/quickcalcs/Ecanything1.cfm.
# [2] = test system: p53 level in H460 and HCT116^+/+ cells; assay: p53 induction by immunoblotting (IB), statement does not separate the cell lines; assay type: cell-based, human; details: 18 hrs, 0.5, 2, 10 µM
# Description: (A–B) Initial Inauhzin analogs were purchased and tested the activity on H460 and HCT116^+/+ by immunoblotting (IB). […]
# H460 cells [3] = assay: 3-day WST-8 cell growth inhibition assay, H460; assay type: cell-based, human; details: for EC90: read-out: EC90, cell growth inhibition, H460 p53 wild type; for EC90 fold lower than that for INZ, H460: statement covers H460 and HCT116^+/+ together
# Protocol: as §1
# HCT116^+/+ cells = assay: 3-day WST-8 cell growth inhibition assay, HCT116^+/+; assay type: cell-based, human; details: for EC50: HCT-116, 72 h WST-8, average of triplicates, highest concentration 50 µM, read-out: EC50, cell growth inhibition, HCT116^+/+ p53 wild type; for EC90 fold lower than that for INZ, HCT116^+/+: statement covers H460 and HCT116^+/+ together; for EC90: read-out: EC90, cell growth inhibition, HCT116^+/+ p53 wild type
# Protocol: as §1
# H1299 cells = assay: 3-day WST-8 cell growth inhibition assay, H1299 (p53 null); assay type: cell-based, human; details: for EC50 / EC90: Homo sapiens; for EC50: NCI-H1299, 72 h WST-8, average of triplicates, highest concentration 100 µM; for effect on p53-null H1299 cells compared with p53-containing cells: in vitro cytotoxicity; for EC50 on H1299 fold higher than on H460 cells: p53-null H1299 vs p53-containing H460; for EC90: NCI-H1299, calculated from EC50 and Hill slope
# Protocol: as §1
# H460 cells [4] = assay: 3-day WST-8 cell growth inhibition assay, H460; assay type: cell-based, human; details: for EC50: Homo sapiens, NCI-H460, 72 h WST-8, average of triplicates, highest concentration 50 µM, read-out: EC50, cell growth inhibition, H460 p53 wild type
# HCT116^−/− cells [5] = assay: 3-day WST-8 cell growth inhibition assay, HCT116^−/− (p53 null); assay type: cell-based, human; details: for EC50: Homo sapiens, HCT-116, 72 h WST-8, average of triplicates, highest concentration 100 µM; for effect on p53-null HCT116^−/− cells compared with p53-containing cells: in vitro cytotoxicity
# HCT116^−/− cells [6] = assay: as above; assay type: cell-based; details: Homo sapiens, HCT-116, calculated from EC50 and Hill slope
# Protocol: as §1
# [7] = Homo sapiens, NCI-H460, calculated from EC50 and Hill slope (GraphPad web calculator)
# [8] = Homo sapiens, HCT-116, calculated from EC50 and Hill slope
smiles,measurement,setting,value
"CCC(Sc1nnc2c(n1)[nH]c1ccccc12)C(=O)N1c2ccccc2Sc2ccc(Cl)cc21 (stereo not shown) [Compound 6, 2-((5H-[1,2,4]triazino[5,6-b]indol-3-yl)thio)-1-(2-chloro-10H-phenothiazin-10-yl)butan-1-one]",p53 induction in H460 cells,p53 level in H460 cells,< 50%
same,p53 induction in HCT116^+/+ cells,[1],< 50%
same,p53 induction / activation by synthetic analogs,[2],remained active in p53 induction
"CCC(Sc1nnc2c(n1)[nH]c1ccccc12)C(=O)N1c2ccccc2Cc2ccccc21 (stereo not shown) [Compound 8, 2-((5H-[1,2,4]triazino[5,6-b]indol-3-yl)thio)-1-(acridin-10(9H)-yl)butan-1-one]",EC90,H460 cells [3]; [7],3.5 to 10 µM
same,"EC90 fold lower than that for INZ, H460",H460 cells [3],3–10 fold
same,fold higher potency than INZ in growth inhibition of HCT116^+/+ cells,HCT116^+/+ cells; EC50 compared with INZ,more than 2 fold
same,EC50,HCT116^+/+ cells; Homo sapiens,1.3 µM
same,"EC90 fold lower than that for INZ, HCT116^+/+",HCT116^+/+ cells,3–10 fold
same,EC50,H1299 cells,10.4 µM
same,effect on p53-null H1299 cells compared with p53-containing cells,H1299 cells,much less effective
same,EC50 on H1299 fold higher than on H460 cells,H1299 cells,3–15 fold
same,p53 induction / activation by synthetic analogs,[2],drastically induced p53 at 0.5 µM; also recorded: greater potentcy than compound 1; also recorded: more potent in p53 activation than their parental compound INZ
same,fold higher potency than INZ in growth inhibition of H460 cells,H460 cells [4]; EC50 compared with INZ,more than 2 fold
same,EC50,H460 cells [4],2.7 µM
same,EC50,HCT116^−/− cells [5],5.9 ± 1 µM
same,effect on p53-null HCT116^−/− cells compared with p53-containing cells,HCT116^−/− cells [5],much less effective
"CCC(Sc1nnc2c(n1)[nH]c1ccccc12)C(=O)N1c2ccccc2Oc2ccccc21 (stereo not shown) [Compound 9, 2-((5H-[1,2,4]triazino[5,6-b]indol-3-yl)thio)-1-(10H-phenoxazin-10-yl)butan-1-one]",p53 induction / activation by synthetic analogs,[2],inactive
"CCCCC(Sc1nnc2c(n1)[nH]c1ccccc12)C(=O)N1c2ccccc2Sc2ccccc21 (stereo not shown) [Compound 14, 2-((5H-[1,2,4]triazino[5,6-b]indol-3-yl)thio)-1-(10H-phenothiazin-10-yl)hexan-1-one]",p53 induction / activation by synthetic analogs,[2],lower activity for p53 induction
"CCC(Sc1nnc2c(n1)[nH]c1cc(F)ccc12)C(=O)N1c2ccccc2Sc2ccccc21 (stereo not shown) [Compound 15, 2-((7-fluoro-5H-[1,2,4]triazino[5,6-b]indol-3-yl)thio)-1-(10H-phenothiazin-10-yl)butan-1-one]",p53 induction / activation by synthetic analogs,[2],inactive
"CCC(Sc1nnc2c(n1)[nH]c1cc(OC)ccc12)C(=O)N1c2ccccc2Sc2ccccc21 (stereo not shown) [Compound 18, 2-((7-methoxy-5H-[1,2,4]triazino[5,6-b]indol-3-yl)thio)-1-(10H-phenothiazin-10-yl)butan-1-one]",p53 induction / activation by synthetic analogs,[2],marked decrease in p53 activation
"CCC(Sc1nnc2c(n1)[nH]c1cc(C)ccc12)C(=O)N1c2ccccc2Sc2ccccc21 (stereo not shown) [Compound 19, 2-((7-methyl-5H-[1,2,4]triazino[5,6-b]indol-3-yl)thio)-1-(10H-phenothiazin-10-yl)butan-1-one]",EC90,H460 cells [3]; [7],26.5 µM
same,EC90,H460 cells [3]; calculated from EC50 and Hill slope (GraphPad web calculator),20 to 30 µM
same,"EC90 fold lower than that for INZ, H460",H460 cells [3],1.5 fold
same,EC90,HCT116^+/+ cells; [8],29.7 µM
same,EC50,HCT116^+/+ cells; Homo sapiens,2.2 ± 0.2 µM
same,EC90,HCT116^+/+ cells; calculated from EC50 and Hill slope,20 to 30 µM
same,EC90,H1299 cells,173 µM
same,EC50,H1299 cells,40.2 ± 7.4 µM
same,effect on p53-null H1299 cells compared with p53-containing cells,H1299 cells,much less effective
same,EC90,HCT116^−/− cells [6],> 1000 µM
same,p53 induction / activation by synthetic analogs,[2],significant effect on p53 induction compared to INZ at 0.5 µM
same,EC50,H460 cells [4],6 ± 0.6 µM
same,EC50,HCT116^−/− cells [5],44.2 ± 10.3 µM
same,effect on p53-null HCT116^−/− cells compared with p53-containing cells,HCT116^−/− cells [5],much less effective
"CCC(Sc1nnc2c3ccccc3n(C(=O)c3ccccc3)c2n1)C(=O)N1c2ccccc2Sc2ccccc21 (stereo not shown) [Compound 21, 2-((5-benzoyl-5H-[1,2,4]triazino[5,6-b]indol-3-yl)thio)-1-(10H-phenothiazin-10-yl)butan-1-one]",EC90,H460 cells [3]; [7],9.6 µM
same,EC90,HCT116^+/+ cells; [8],21.9 µM
same,EC50,HCT116^+/+ cells; Homo sapiens,2.1 ± 1 µM
same,EC90,H1299 cells,82.3 µM
same,EC50,H1299 cells,12.6 ± 1.4 µM
same,effect on p53-null H1299 cells compared with p53-containing cells,H1299 cells,much less effective
same,EC90,HCT116^−/− cells [6],> 1000 µM
same,EC50,H460 cells [4],4.3 ± 0.3 µM
same,EC50,HCT116^−/− cells [5],28.2 ± 1.4 µM
same,effect on p53-null HCT116^−/− cells compared with p53-containing cells,HCT116^−/− cells [5],much less effective
"CCC(Sc1nnc2c3ccccc3n(C(=O)c3cccnc3)c2n1)C(=O)N1c2ccccc2Sc2ccccc21 (stereo not shown) [Compound 22, 2-((5-nicotinoyl-5H-[1,2,4]triazino[5,6-b]indol-3-yl)thio)-1-(10H-phenothiazin-10-yl)butan-1-one]",EC90,H460 cells [3]; [7],20.5 µM
same,EC50,H460 cells [4],4.9 ± 1 µM
"CCCCCC(=O)C1(SC(CC)C(=O)N2c3ccccc3Sc3ccccc32)N=c2[nH]c3ccccc3c2=NN1 (stereo not shown) [Compound 23, 1-(3-((1-oxo-1-(10H-phenothiazin-10-yl)butan-2-yl)thio)-5H-[1,2,4]triazino[5,6-b]indol-3-yl)hexan-1-one]",EC90,H460 cells [3]; [7],22.6 µM
same,EC50,H460 cells [4],6.7 ± 0.7 µM
"C=CCCC(=O)n1c2ccccc2c2nnc(SC(CC)C(=O)N3c4ccccc4Sc4ccccc43)nc21 (stereo not shown) [Compound 24, 1-(3-((1-oxo-1-(10H-phenothiazin-10-yl)butan-2-yl)thio)-5H-[1,2, 4]triazino[5,6-b]indol-5-yl)pent-4-en-1-one]",EC90,H460 cells [3]; [7],14.5 µM
same,EC50,H460 cells [4],5.7 ± 0.3 µM
"CCC(Sc1nnc2c3ccccc3n(C(=O)CCCCBr)c2n1)C(=O)N1c2ccccc2Sc2ccccc21 (stereo not shown) [Compound 26, 5-bromo-1-(3-((1-oxo-1-(10H-phenothiazin-10-yl)butan-2-yl)thio)-5H-[1,2, 4]triazino[5,6-b]indol-5-yl)pentan-1-one]",EC90,H460 cells [3]; [7],38.2 µM
same,EC50,H460 cells [4],16 ± 0.9 µM
"CCOC(=O)CCCC(=O)n1c2ccccc2c2nnc(SC(CC)C(=O)N3c4ccccc4Sc4ccccc43)nc21 (stereo not shown) [Compound 27, Ethyl 5-oxo-5-(3-((1-oxo-1-(10H-phenothiazin-10-yl)butan-2-yl)thio)-5H-[1,2,4]triazino[5,6-b]indol-5-yl)pentanoate]",EC90,H460 cells [3]; [7],9 µM
same,EC50,H460 cells [4],3.4 ± 0.3 µM
"CCOC(=O)Cn1c2ccccc2c2nnc(SC(CC)C(=O)N3c4ccccc4Sc4ccccc43)nc21 (stereo not shown) [Compound 28, Ethyl 2-(3-((1-oxo-1-(10H-phenothiazin-10-yl)butan-2-yl)thio)-5H-[1,2,4]triazino[5,6-b]indol-5-yl)acetate]",p53 induction / activation by synthetic analogs,[2],essentially inactive
"CCC(Sc1nnc2c3ccccc3n(CC(=O)O)c2n1)C(=O)N1c2ccccc2Sc2ccccc21 (stereo not shown) [Compound 29, 2-(3-((1-oxo-1-(10H-phenothiazin-10-yl)butan-2-yl)thio)-5H-[1,2,4]triazino[5,6-b]indol-5-yl)acetic acid]",p53 induction / activation by synthetic analogs,[2],essentially inactive
"CCC(Sc1nnc2c3ccccc3n(CCO)c2n1)C(=O)N1c2ccccc2Sc2ccccc21 (stereo not shown) [Compound 30, 2-((5(2-hydoxyethyl)-5H-[1,2,4]triazino[5,6-b]indol-5-yl)thiol)-1-(10H-phenothiazin-10-yl)butan-1-one]",EC90,H460 cells [3]; [7],~7.7 µM
same,"EC90 fold lower than that for INZ, H460",H460 cells [3],5 fold
same,EC90,HCT116^+/+ cells; [8],4.6 µM
same,EC50,HCT116^+/+ cells; Homo sapiens,0.8 ± 0.5 µM
same,"EC90 fold lower than that for INZ, HCT116^+/+",HCT116^+/+ cells,5 fold
same,EC50,H1299 cells,16.6 µM
same,effect on p53-null H1299 cells compared with p53-containing cells,H1299 cells,much less effective
same,EC50 on H1299 fold higher than on H460 cells,H1299 cells,3–15 fold
same,p53 induction / activation by synthetic analogs,[2],comparable to compound 8; also recorded: more potent in p53 activation than their parental compound INZ
same,EC50,H460 cells [4],3.5 ± 0.4 µM
same,EC50,HCT116^−/− cells [5],7.8 ± 3.4 µM
same,effect on p53-null HCT116^−/− cells compared with p53-containing cells,HCT116^−/− cells [5],much less effective
"C#CCCn1c2ccccc2c2nnc(SC(CC)C(=O)N3c4ccccc4Sc4ccccc43)nc21 (stereo not shown) [Compound 32, 2-((5(but-3-yn-1-yl)-5H-[1,2,4]triazino[5,6-b]indol-3-yl)thiol)-1-(10H-phenothiazin-10-yl)butan-1-one]",p53 induction / activation by synthetic analogs,[2],significant decrease in activity
"CCC(Sc1nnc2c3ccccc3n(CC(=O)c3ccccc3)c2n1)C(=O)N1c2ccccc2Sc2ccccc21 (stereo not shown) [Compound 33, 2-((5-(2-oxo-2-phenylethyl)-5H-[1,2,4]triazino[5,6-b]indol-3-yl)thiol)-1-(10H-phenothiazin-10-yl)butan-1-one]",p53 induction / activation by synthetic analogs,[2],significant decrease in activity
"CCC(Sc1nnc2c(n1)[nH]c1ccccc12)C(=O)N1c2ccccc2Sc2ccccc21 (stereo not shown) [INZ, 2-((5H-[1,2,4]triazino[5,6-b]indole-3yl)thio)-1-(10H-phenothiazin-10-yl)butan-1-one]",EC90,H460 cells [3]; [7],39.9 µM
same,EC90,HCT116^+/+ cells; [8],30.5 µM
same,EC50,HCT116^+/+ cells; Homo sapiens,2.7 ± 0.3 µM
same,EC90 fold greater in p53-null cells than in p53-containing cell lines,"H1299 cells; H1299, HCT116^−/− vs H460, HCT116^+/+",5–7 fold
same,EC90,H1299 cells,217 µM
same,EC50,H1299 cells,11.6 ± 3.4 µM
same,EC90,HCT116^−/− cells [6],213 µM
same,EC50,H460 cells [4],7.7 ± 1.1 µM
same,EC50,HCT116^−/− cells [5],13.3 ± 2.4 µM
